Data set [1] has as its system primary neurons expressing human mutant aSYN A30P. Put plainly: Primary neuronal culture, neurite morphology (Cellomics ArrayScan). The data set is classed as cell-based, Drosophila. The settings on record: for neurite length and branching in images vs DMSO controls: 60 nM, FIG. 1B, 1C. How it is done: Primary cell cultures are prepared from mid-gastrula stage embryos as described previously (Sepp et al., 2008). Briefly, embryos are collected on agar media plates and dechorionated in 50% bleach for 4 min., followed by rinsing with sterile distilled water. Embryos are homogenized in Shields and Sang M3 media (Sigma) in a Dounce homogenizer, and debris are pelleted by centrifugation at 40 g for 10 min and then 5 min. Neuroblasts are pelleted by centrifugation at 380G for 10 min. Cells are resuspended at 1×10^6 cells/mL in Shields and Sang M3 media supplemented with 10 U/mL penicillin, 10 ug/mL streptomycin, and 200 ng/mL insulin, and plated on 384-well plates (Corning) at 50 uL/well. Cells are incubated at 21° C. Compound is applied 24 hrs after cells are plated. Stock compounds (15 mM) and log dilutions (10^−1, 10^−2, 10^−3, 10^−4, and 10^−5) are prepared in DMSO, then each stock is further diluted 1/10 with media, and 1 uL of this working reagent is applied to culture wells. Cultures are matured for 7 days. Cultures are fixed and stained as described previously (Halter et al., 1995), using pan-neuronal marker anti-elav (1:10, Developmental Studies Hybridoma Bank), and anti-human aSYN (1:1000, Abeam), and dopaminergic neuron marker anti-tyrosine hydroxylase (1:1000, Millipore). Cultures are imaged on a Cellomics robotic fluorescence microscope, and morphologies are quantified with Cellomics ArrayScan algorithms and statistically processed with Prism software.
Primary cell cultures were prepared from mid-gastrula stage embryos as described previously (Sepp et al., 2008). Briefly, embryos are collected on agar media plates and dechorionated in 50% bleach for 4 min., followed by rinsing with sterile distilled water. Embryos were homogenized in Shields and Sang M3 media (Sigma) in a Dounce homogenizer, and debris pelleted by centrifugation at 40 g for 10 min and then 5 min. Neuroblasts were pelleted by centrifugation at 380G for 10 min. Cells were resuspended at 1×10^6 cells/mL in Shields and Sang M3 media supplemented with 10 U/mL penicillin, 10 ug/mL streptomycin, and 200 ng/mL insulin, and plated on 384-well plates (Corning) at 50 uL/well. Cells were incubated at 21° C. Compound was applied 24 hrs after cells were plated. Stock compounds (15 mM) and log dilutions (10^−1, 10^−2, 10^−3, 10^−4, and 10^−5) were prepared in DMSO, then each stock was further diluted 1/10 with media, and 1 uL of this working reagent was applied to culture wells. Cultures were matured for 7 days. Cultures were fixed and stained as described previously (Halter et al., 1995), using pan-neuronal marker anti-GFP (1:1000, Life Technologies), and anti-human aSYN (1:1000, Abcam). Cultures were imaged on a Cellomics robotic fluorescence microscope, and morphologies are quantified with Cellomics ArrayScan algorithms and statistically processed with Prism software.

Data set [2] concerns human mutant aSYN (AAV1/2 A53T α-Synuclein). Kind of data set: Quantitative immunoblot of aSYN in AAV-aSYN rat model of Parkinson's disease. The data set is classed as in vivo. To be noted: 37.4 ug/h into third ventricle; for aSYN protein levels in postmortem rat brain immunoblots: TPT vs vehicle. The source says: An AAV 1/2-aSYN A53T vector delivery-based over-expression of aSYN in the rat substantia nigra was chosen to model PD synucleinopathy, since it replicates progressive nigrostriatal degeneration and basal ganglia-based motor features of PD better than existing stable transgenic models. Furthermore, time of symptom onset is far more predictable, thus reducing experimental noise. Viral vectors will be delivered as using stereotactic injection. Briefly, 20 Sprague Dawley rats (280 g, Charles River) were injected with AAV 1/2-aSYN A53T to the experimental hemisphere (right) and AAV1/2-GFP to the control hemisphere (left) using standard stereotaxic procedures and isoflurane/oxygen anesthesia. Vector (2 μL) was delivered by microinjector (Stoelting, Kiel, Wis.) at 0.2 μL/min with coordinates from Bregma: AP, −5.2 mm; ML, −2.0 mm; DV, −7.5 mm. Viral stock concentrations for both AAV1/2 GFP and AAV1/2-aSYN A53T were 1.7×10^12 gp/mL. Animals were housed in pairs at 20° C. with a 12 hr light/dark cycle with food and water ad libitum. Animals recovered were maintained with regular care for 3 weeks as viral gene expression of aSYN built to emerging pathological levels as characterized previously.
On Day 1 of Week 3, rats were fitted with osmotic mini-pumps to administer TPT to the third ventricle. Intracerebral administration was chosen to maximize the amount of drug given to the brain and minimize side effects in peripheral tissues. Using standard stereotaxic procedures, a 22-gauge guide cannula (Plastics One, Roanoake, Va.) was placed into the third ventricle (AP, −1.3 mm, ML, +0.0 mm; DV −4.6 mm with respect to bregma) of isoflurane/oxygen anesthetized rats, and anchored with dental acrylic. […]
Standard Western blot techniques are used on dissected postmortem tissues to determine if aSYN levels decrease in response to TPT treatment. […] Blots are imaged on an Odyssey Quantitative Fluorescence Imaging System. Two-tailed student's t-test is used Western blot quantifications.

Data set [3] can be described thus: Pharmacokinetic analysis: mass-spec of TPT in postmortem rat brain. To be noted: osmotic pump into third ventricle, 37.4 ug/h. The data set is classed as in vivo. The source says: On Day 1 of Week 3, rats were fitted with osmotic mini-pumps to administer TPT to the third ventricle. Intracerebral administration was chosen to maximize the amount of drug given to the brain and minimize side effects in peripheral tissues. Using standard stereotaxic procedures, a 22-gauge guide cannula (Plastics One, Roanoake, Va.) was placed into the third ventricle (AP, −1.3 mm, ML, +0.0 mm; DV −4.6 mm with respect to bregma) of isoflurane/oxygen anesthetized rats, and anchored with dental acrylic. Rats were bilaterally infused with TPT or vehicle using a mini-osmotic pulp (Alzet model 2ML2 pump, flow rate 5.0 uL/hr, Durect Corp. Cupertino) to the third ventricle, which was delivered for 2 weeks. The pumps were filled with 16.34 mM topotecan (TPT) (CPT06, Molcan Corporation) in 50 mM tartaric acid with 0.9% saline (delivered at 37.4 μg/h), or vehicle control alone. Upon cessation of drug on Day 7 of Week 4 or at some other time point, rats were sacrificed by an overdose of pentobarbital (1.0 mL of 240 mg/mL, i.p.) and exsanguinated by transcardial saline perfusion followed by 4% paraformaldehyde.
Postmortem brain samples were subjected to standard quadrupole mass […] analysis to determine brain penetration of TPT into tissue samples.

Data set [4] has as its system aSYN expressing larvae. Kind of data set: Larval survival assay in liquid culture. The data set is classed as in vivo, Drosophila. To be noted: for survival: after 4 days in liquid culture, DMSO 14%, untreated 13%. How it is done: Embryos are collected from transgenic strains and dispensed in 96-well plates containing liquid media culture (200 uL/well). Stock compounds (15, 15×10^−2, 15×10^−5 mM) prepared in DMSO, are diluted 1/10 with media, and then 1 uL of this working reagent is dispensed in culture wells. Percentage survival of mutant and negative control larvae are recorded on day 4 following compound administration. Data are plotted graphically.
Embryos were collected from transgenic strains and dispensed in 96-well plates containing liquid media culture (200 uL/well). Stock compounds (15, 15×10^−2, 15×10^−5 mM) prepared in DMSO, were diluted 1/10 with media, and then 1 uL of this working reagent was dispensed in culture wells. Percentage survival of mutant and negative control larvae are recorded on day 4 following compound administration. Data were plotted graphically with Prism software.

Data set [5] concerns polyglutamine-expanded Huntingtin protein. To be noted: cited from earlier work; for polyglutamine protein aggregation: Huntington's disease (HD) model.
The test system of data set [6] is gap junction. The settings on record: cited from earlier work.
The conditions of data set [7]: in vivo, cited from earlier work.
In data set [8] the target is HSD1 (Mus musculus, UniProt P50172). To be noted: i.p. 20 mg/kg, every other day for 2 months; cited from earlier work.
HSD1, sequence (P50172 whole entry): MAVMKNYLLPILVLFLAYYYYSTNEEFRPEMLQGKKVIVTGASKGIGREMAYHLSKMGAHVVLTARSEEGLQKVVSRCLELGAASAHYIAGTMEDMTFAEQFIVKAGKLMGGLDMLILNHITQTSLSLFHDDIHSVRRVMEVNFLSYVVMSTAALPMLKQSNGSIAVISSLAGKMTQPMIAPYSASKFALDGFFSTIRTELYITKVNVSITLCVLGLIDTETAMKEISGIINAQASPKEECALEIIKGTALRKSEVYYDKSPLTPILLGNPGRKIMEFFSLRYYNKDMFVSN

Each structure is given as a SMILES string. Values joined by “and” are separate entries in the source; they are usually repeats but may differ in a detail not shown here. Equal entries are not always repeated. “Also recorded” adds a separate entry of the source. Where two headings read alike, the source gives them in different places.

As to `CC[C@@]1(O)C(=O)OCc2c1cc1n(c2=O)Cc2cc3c(CN(C)C)c(O)ccc3nc2-1` [topotecan], the “neurite outgrowth vs DMSO control” value in data set [1] (30 nM, FIG. 1D) is reported as “improved neurite outgrowth”. Further, in data set [1], the “neurite length and branching in images vs DMSO controls” value is “longer neurites and reduced neuritic branching”. In addition, the “aSYN protein levels in postmortem rat brain immunoblots” value in data set [2] is listed as “reduced aSYN protein levels; also recorded: inverse relationship”; in data set [2] (listed as TPT), “reduced in the TPT treatment with a dose-dependent trend”. Also, in data set [2] (three rats, average 2725 ng TPT/g tissue), the “reduction in aSYN normalized to beta-Actin vs vehicle control” value was approximately 2 fold. The “average TPT brain level of three rats” value in data set [3] is given as 2725 ng TPT/g tissue. The “TPT level in cortex, single rats” value in data set [3] (n=3 rats, listed as TPT) was 6809 ng TPT/g tissue and 967 ng TPT/g tissue and 399 ng TPT/g tissue.

Compound `C[C@@H](CN1CC(=O)NC(=O)C1)N1CC(=O)NC(=O)C1` [dexrazoxane, Dexrazoxane] registered a survival in data set [4] ('med' dose 0.15 uM, n=9) of 75%. The “survival compared to DMSO vehicle-treated controls” value in data set [4] (medium dose 0.15 uM) is on record as “improved survival”.

Turning to `CC1(C)[C@@H](O)CC[C@]2(C)[C@H]3C(=O)C=C4[C@@H]5C[C@@](C)(C(=O)O)CC[C@]5(C)CC[C@@]4(C)[C@]3(C)CC[C@@H]12` [18β-glycyrrhetinic acid], the polyglutamine protein aggregation result in data set [5] was “protect against polyglutamine protein aggregation”. For the same compound, the “gap junction blocking activity” value in data set [6] is reported as “have gap junction blocking activity”. In data set [7], the “crossing of the blood-brain-barrier” value is “do not cross the blood-brain-barrier at high enough concentrations”.

`CC1(C)[C@@H](OC(=O)CCC(=O)O)CC[C@]2(C)[C@H]3C(=O)C=C4[C@@H]5C[C@@](C)(C(=O)O)CC[C@]5(C)CC[C@@]4(C)[C@]3(C)CC[C@@H]12` [carbenoxolone, (3β)-3-[(3-carboxy-propanoyl)oxy]-11-oxoolean-12-en-30-oic acid]: in data set [1] (30 nM), the “neurite morphology profiles (image features) vs DMSO negative control” value is on record as “improved neurite morphology profiles”. Moreover, the “excessive branching vs DMSO vehicle controls” value in data set [1] (30 nM, FIG. 1E) was “reduces the excessive branching phenotype; also recorded: reduced excessive branching”. Further, the “total branches per well” value in data set [1] (30 nM, Mean±SEM, n=4, DMSO vehicle 4.416±0.2622 (n=16), P<0.05, FIG. 1E) was 3.198±0.1825. The “neurite length and branching in images vs DMSO controls” value in data set [1] is “longer neurites and reduced neuritic branching”. In addition, the polyglutamine protein aggregation entry in data set [5] is “protect against polyglutamine protein aggregation”. For the same compound, in data set [5] (early dosing), the “lifespan and motor control” value is “extend Drosophila HD model lifespan and improves motor control”. Also, in data set [5] (in vivo, Drosophila), the “rescue of toxicity of polyglutamine-expanded Huntingtin protein” value is on record as “in vivo rescue of toxicity”. In addition, the “gap junction blocking activity” value in data set [6] is recorded as “have gap junction blocking activity”. Further, the “inhibition of target enzyme HSD1” value in data set [8] is “effective at inhibiting the target enzyme HSD1”. Besides, the “crossing of the blood-brain-barrier” value in data set [7] (concentrations needed for gap junction block) is recorded as “do not cross the blood-brain-barrier at high enough concentrations”.

As for `CC[C@@]1(O)C(=O)OCc2c1cc1n(c2=O)Cc2cc3cc(O)ccc3nc2-1` [camptothecin-OH, 10-hydroxy-camptothecin], in data set [1] (30 nM), the “neurite morphology profiles (image features) vs DMSO negative control” value is recorded as “improved neurite morphology profiles”. Moreover, the “neurite outgrowth vs DMSO control” value in data set [1] (30 nM, FIG. 1D) is “improved neurite outgrowth”. The “total neurite length per well” value in data set [1] (30 nM, Mean±SEM, n=4, DMSO vehicle 15240±799.8 (n=18), P<0.05, FIG. 1D) came to 20170±1430 um. Further, the survival in data set [4] ('hi' dose 15 uM, n=5) turned out to be 100%. For the same compound, the “survival compared to DMSO vehicle-treated controls” value in data set [4] (high dose 15 uM) is reported as “improved survival”.

(Values after patent publication US20150148369A1, “CHEMICAL SUPPRESSORS OF NEUROTOXICITY IN SYNUCLEINOPATHIC DISEASES” (priority 2012, published 2015).)
